# Several values for one entry are separate records, joined by “and”; a condition that tells them apart may be missing. Identical values can stand only once.
# What was measured:
# [1] = HPLC analysis of stability of the isolated radiometal complex; format: physicochemical; conditions: room temperature
# Experimental: The major radioactive HPLC peak, eluting with a retention time of 14.1 minutes, was collected. […] HPLC conditions: Solvent A=56 mM NH4OAc in water; Solvent B═CH3CN. Flow rate=1 mL/min on 4.6×250 mm C18 reverse-phase column. Linear gradient conditions: 5% B at zero minutes, ramping to 25% B at 25 minutes, then ramping to 60% B at 27 minutes and 100% B at 30 minutes.
# HPLC-purified ^64Cu-CY4-036 was removed from the HPLC solvents by solid-phase extraction. A C18 Sep-Pak Light solid phase extraction cartridge (Millipore, Inc.) was conditioned by washing with ethanol followed by water. The HPLC-purified ^64Cu-CY4-036 was loaded onto the C18 Sep-Pak after dilution with water to 5% acetonitrile, the Sep-Pak was washed with 20 mL water, and the ^64Cu-CY4-036 product recovered by fractional elution with ethanol. The resulting ethanol solution of ^64Cu-CY4-036 was evaporated to dryness under a stream of N2 at room temperature, and the ^64Cu-CY4-036 was reconstituted in water. Analytical HPLC confirmed the radiochemical purity, and stability, of the isolated ^64Cu-CY4-036 product. HPLC conditions: Solvent A=53 mM NH4OAc in water; Solvent B═CH3CN. Flow rate=1 mL/min on 4.6×250 mm C18 reverse-phase analytical column. Linear gradient conditions: 5% B at zero minutes, ramping to 25% B at 25 minutes, then ramping to 60% B at 27 minutes and 100% B at 30 minutes.
# [2] = system: folate-receptor-positive human KB cell tumor xenografts; experiment: Biodistribution of 111In radiotracer in KB tumor-bearing athymic mice after intravenous administration; format: in vivo; conditions: for Percentage of Injected 111In Dose Per Organ (Tissue): Muscle: muscle assumed 42% of body mass
# Experimental: Our primary animal model for evaluation of the biodistribution and pharmacokinetics of folate-receptor-targeted radiopharmaceuticals has been athymic mice bearing subcutaneously implanted folate-receptor-positive human KB cell tumors. […] After 3 weeks on folate-free diet, mouse serum folate levels drop to 25±7 nM from the initial 720±260 nM serum folate level when the animals are fed normal rodent chow. This dietary intervention is believed to be a reasonable manipulation of the animal model, since the mice would have serum folate levels only slightly higher than the folate concentration of normal human serum. Thus, in these mouse biodistribution studies the radiotracer is competing for tumor folate receptors with physiologically relevant concentrations of endogenous unlabeled serum folate.
# The substantial retention of ^111In in the kidneys is fully consistent with the binding of ^111In-CYK4-013 to tissue folate receptors, since the renal proximal tubule is a known normal tissue site of folate receptor expression. […] The behavior of the ^111In-CYK4-013 radiopharmaceutical in this animal model (Table 2) is very similar to that observed for ^111In-DTPA-Folate (Table 3).
# Results. Similar to ^111In-DTPA-Folate, ^111In-CYK4-013 selectively localized in the folate-receptor-positive tumor xenografts, and afforded prolonged tumor retention of ^111In (5.4±0.8; 5.5±1.1; and 3.6±0.6% ID/g at 1 hour, 4 hours, and 24 hours, respectively) (Table 2). […] Blockable binding was also observed in the kidneys, where the folate receptor occurs in the proximal tubules.
# [3] = 1 Hour after intravenous administration
# [4] = 4 Hours after intravenous administration
compound,measurement,setting,value
Nc1nc(O)c2nc(CNc3ccc(C(=O)NCCOCCOCCNC(=O)CN(CCN(CCN(CC(=O)O)CC(=O)O)CC(=O)O)CC(=O)O)cc3)cnc2n1.[111In+3] [^111In-CYK4-013],time the isolated HPLC peak remains stable,[1],at least 7 days
same,Percentage of Injected 111In Dose Per Gram (Tissue Wet Mass): Blood,[2]; [3],0.18 ± 0.01 % ID/g
same,Percentage of Injected 111In Dose Per Gram (Tissue Wet Mass): Heart,[2]; [3],3.5 ± 0.4 % ID/g
same,Percentage of Injected 111In Dose Per Gram (Tissue Wet Mass): Kidney (one),[2]; [3],61 ± 5 % ID/g
same,Percentage of Injected 111In Dose Per Gram (Tissue Wet Mass): Liver & Gall Bladder,[2]; [3],4.3 ± 0.7 % ID/g
same,Percentage of Injected 111In Dose Per Gram (Tissue Wet Mass): Lungs,[2]; [3],1.5 ± 0.2 % ID/g
same,Percentage of Injected 111In Dose Per Gram (Tissue Wet Mass): Muscle,[2]; [3],3.5 ± 0.5 % ID/g
same,Percentage of Injected 111In Dose Per Gram (Tissue Wet Mass): Spleen,[2]; [3],0.31 ± 0.09 % ID/g
same,"Percentage of Injected 111In Dose Per Gram (Tissue Wet Mass): Stomach, Intestines & Contents",[2]; [3],1.7 ± 0.2 % ID/g
same,Percentage of Injected 111In Dose Per Gram (Tissue Wet Mass): Tumor,[2]; [3],5.4±0.8 % ID/g
same,Percentage of Injected 111In Dose Per Organ (Tissue): Blood,[2]; [3],0.29 ± 0.003 Percentage of Injected 111In D
same,Percentage of Injected 111In Dose Per Organ (Tissue): Heart,[2]; [3],0.51 ± 0.09 Percentage of Injected 111In D
same,Percentage of Injected 111In Dose Per Organ (Tissue): Kidney (one),[2]; [3],15.3 ± 1.2 Percentage of Injected 111In D
same,Percentage of Injected 111In Dose Per Organ (Tissue): Liver & Gall Bladder,[2]; [3],6.8 ± 1.3 Percentage of Injected 111In D
same,Percentage of Injected 111In Dose Per Organ (Tissue): Lungs,[2]; [3],0.69 ± 0.06 Percentage of Injected 111In D
same,Percentage of Injected 111In Dose Per Organ (Tissue): Spleen,[2]; [3],0.063 ± 0.016 Percentage of Injected 111In D
same,"Percentage of Injected 111In Dose Per Organ (Tissue): Stomach, Intestines & Contents",[2]; [3],5.8 ± 0.5 Percentage of Injected 111In D
same,Percentage of Injected 111In Dose Per Organ (Tissue): Tumor,[2]; [3],0.78 ± 0.47 Percentage of Injected 111In D
same,Tumor/blood ratio,[2]; [3],30 ± 5
same,Tumor/kidney ratio,[2]; [3],0.088 ± 0.013
same,Tumor/liver ratio,[2]; [3],1.3 ± 0.4
same,Tumor/muscle ratio,[2]; [3],1.6 ± 0.4
same,Percentage of Injected 111In Dose Per Organ (Tissue): Muscle,[2]; [3],43.6 ± 4.1 Percentage of Injected 111In D
same,Percentage of Injected 111In Dose Per Gram (Tissue Wet Mass): Blood,[2]; [4],0.050 ± 0.009 % ID/g
same,Percentage of Injected 111In Dose Per Gram (Tissue Wet Mass): Heart,[2]; [4],2.9 ± 0.9 % ID/g
same,Percentage of Injected 111In Dose Per Gram (Tissue Wet Mass): Kidney (one),[2]; [4],81 ± 7 % ID/g
same,Percentage of Injected 111In Dose Per Gram (Tissue Wet Mass): Liver & Gall Bladder,[2]; [4],1.9 ± 0.6 % ID/g
same,Percentage of Injected 111In Dose Per Gram (Tissue Wet Mass): Lungs,[2]; [4],1.4 ± 0.3 % ID/g
same,Percentage of Injected 111In Dose Per Gram (Tissue Wet Mass): Muscle,[2]; [4],2.8 ± 0.8 % ID/g
same,Percentage of Injected 111In Dose Per Gram (Tissue Wet Mass): Spleen,[2]; [4],0.29 ± 0.07 % ID/g
same,"Percentage of Injected 111In Dose Per Gram (Tissue Wet Mass): Stomach, Intestines & Contents",[2]; [4],1.5 ± 0.9 % ID/g
same,Percentage of Injected 111In Dose Per Gram (Tissue Wet Mass): Tumor,[2]; [4],5.5±1.1 % ID/g and 5.6 ± 1.1 % ID/g
same,Percentage of Injected 111In Dose Per Organ (Tissue): Blood,[2]; [4],0.078 ± 0.010 Percentage of Injected 111In D
same,Percentage of Injected 111In Dose Per Organ (Tissue): Heart,[2]; [4],0.41 ± 0.08 Percentage of Injected 111In D
same,Percentage of Injected 111In Dose Per Organ (Tissue): Kidney (one),[2]; [4],20.2 ± 1.6 Percentage of Injected 111In D
same,Percentage of Injected 111In Dose Per Organ (Tissue): Liver & Gall Bladder,[2]; [4],3.0 ± 1.0 Percentage of Injected 111In D
same,Percentage of Injected 111In Dose Per Organ (Tissue): Lungs,[2]; [4],0.60 ± 0.01 Percentage of Injected 111In D
same,Percentage of Injected 111In Dose Per Organ (Tissue): Spleen,[2]; [4],0.049 ± 0.012 Percentage of Injected 111In D
same,"Percentage of Injected 111In Dose Per Organ (Tissue): Stomach, Intestines & Contents",[2]; [4],5.4 ± 0.8 Percentage of Injected 111In D
same,Percentage of Injected 111In Dose Per Organ (Tissue): Tumor,[2]; [4],0.46 ± 0.26 Percentage of Injected 111In D
same,Tumor/blood ratio,[2]; [4],111 ± 11
same,Tumor/kidney ratio,[2]; [4],0.069 ± 0.013
same,Tumor/liver ratio,[2]; [4],3.0 ± 0.5
same,Tumor/muscle ratio,[2]; [4],2.1 ± 0.2
same,Percentage of Injected 111In Dose Per Organ (Tissue): Muscle,[2]; [4],33 ± 9 Percentage of Injected 111In D
